These results are taken from patent US20260354378A1, “OIL-IN-WATER EMULSION FORMULATION, A PROCESS FOR ITS PREPARATION AND ITS USE AS HERBICIDE” (priority 2022, published 2026).

The nature of data set [1]: Solubility in the organic solvent Solvesso 200ND. Conditions: room temperature. Format: physicochemical. On the procedure: (§1) As a preliminary step, solubility tests were performed to determine the ability of Aminopyralid potassium salt used as herbicide B to dissolve in the organic solvent Solvesso 200ND and the oil phase of the emulsion disclosed in US 2011/0092367 A1, page 11, paragraphs [0141] and [0142].
The solubility was measured in a test tube at room temperature. 0.10 g of Aminopyralid potassium salt was placed in the test tube. First, 1 g of the organic solvent (Solvesso 200 ND) was added. The amount of the organic solvent (Solvesso 200 ND) was then increased in several steps to 10 g. […] The solubility of Aminopyralid Potassium salt in Solvesso 200ND was visually determined to be less than 1%.

Data set [2] can be described thus: Solubility in the oil phase of the emulsion of US 2011/0092367 A1. It is filed as physicochemical. To be noted: Solvesso 200 ND, Wettol EM 1, Wettol EM 31 per Table 9. The method, then: as §1
The organic solvent (Solvesso 200 ND), calcium dodecylbenzene sulfonate (Wettol EM 1) and castor oil ethoxylate (Wettol EM 31) were mixed in the amounts given in Table 9. After mixing, it was not soluble in said mixture. After further adding dimethenamid-P in the amount given in Table 9, solubility of the Aminopyralid potassium salt could not be increased. In summary, Aminopyralid potassium salt (herbicide B) was not soluble in the oil phase of the emulsion as disclosed in US 2011/0092367 A1 (see page 11, paragraphs [0141] and [0142]).

Structures can show the parent of a compound that is named as a salt.

For the compound `Nc1cc(Cl)nc(C(=O)O)c1Cl` [Aminopyralid potassium salt, 4-amino-3,6-dichloro-2-pyridinecarboxylic acid], the “Solubility in Solvesso 200 ND (visual observation)” value in data set [1] (0.10 g in 1 g to 10 g solvent, magnetic stirrer) is recorded as “poor solubility”. In addition, the “Solubility in Solvesso 200ND” value in data set [1] (visually determined) is “less than 1%”. Further, the “Solubility in the oil phase of the emulsion of US 2011/0092367 A1” value in data set [2] is “not soluble”.
